Where two headings read alike, the source gives them in different places.
Columns and labels:
RS4; 11 cells = experiment: Tumor proliferation inhibitory activity test (MTS) on RS4; 11; format: cell-based; conditions: Homo sapiens, RS4-11, 72 h, 3 days incubation
Method: The cell proliferation inhibitory ability of the compounds on RS4; 11 was tested using the MTS method. MTS is a tetrazolium blue salt compound that can be reduced by various dehydrogenases in live cell mitochondria to their respective colored methylzan products. Its color depth is highly correlated with the number of live cells in certain sensitive cell lines within a certain range. RS4; 11, RS4; 11 (BCL-2-G101V) and MOLT-4 tumor cells were cultivated separately and collected, 180 μL of cell suspension was added to each well in a 96-well cell plate, 20 μL of DMSO with a final concentration of 0.2% was added to the control cell wells, 20 μL of gradient diluted compounds were added to cell wells, and the treated cells were incubated in a 5% CO2 incubator at 37° C. for 3 days. After the incubation was completed, the reaction solution was prepared according to the MTS reagent kit, 20 μL was added per well and incubated in a 5% CO2 incubator at 37° C. for 3-4 hours. The absorbance value at 490 nm was read using an enzyme-linked immunosorbent assay (ELISA) plate, and the absorbance value at 690 nm was used as the background value, with OD490 nm-OD690 nm as the final raw data. The formula for calculating the inhibition ratio of compounds was as follows: inhibition ratio=(ODDMSO−ODCompound)/(ODDMSO−ODblank)×100%.

BCL2 (G101V) = BCL2 (G101V) (Homo sapiens (Human), UniProt P10415, G101V); experiment: Molecular level activity test of anti-apoptotic protein BCL2 (G101V) (HTRF, binding to Bim peptide); conditions: inhibition of BCL2 (G101V) binding to Bim peptide, read-out: BCL-2 (G101V)
Method: (§1) The detection of the binding ability between anti-apoptotic protein BCL2 (G101V) and pro-apoptotic protein Bim was performed using Homogeneous Time-Resolved Fluorescence technology. The reaction of this method occurred in a white shallow 384-well plate, with a total reaction volume of 10 μL. Specifically, it included 2 μL of the compound to be tested (2% DMSO), 4 μL His-tagged recombinant protein, and 4 μL Biotin-tagged BIM protein peptide. After 1 hour of reaction, 5 L of each Anti-His and streptavidin-tagged XL665 antibody diluents diluted with a detection buffer were added. After incubating at room temperature for 4 hours, the values were read using the Envision multifunctional microplate reader to detect the effect of the compound to be tested on the binding ability of BCL2 (G101V) to BIM protein peptides.

BCL2 = BCL2 (Homo sapiens (Human), UniProt P10415); experiment: Molecular level activity test of anti-apoptotic protein BCL2 (HTRF, binding to Bim peptide); conditions: HTRF, binding of BCL2 to Bim peptide; read-out: BCL2 nM (inhibitory activity, IC50)
Outline: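 Disruption of the BCL2/Bim peptide interaction is detected by homogeneous time-resolved fluorescence, using anti-His and streptavidin-XL665 reagents against His-tagged protein and biotin-tagged peptide. Compound exposure lasts 1 h before reagent addition; plates then sit 4 h at room temperature.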

BCL-XL = BCL-XL (Homo sapiens (Human), UniProt Q07817); experiment: BCL-XL enzyme molecular level activity test (HTRF, binding to BIM peptide); conditions: binding of BCL-XL to BIM peptide, read-out: BCL-XL inhibitory activity (IC50)
Outline: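 HTRF binding assay: His-tagged recombinant BCL-XL with biotin-BIM peptide and compound (2% DMSO), 1 h. Anti-His and streptavidin-XL665 detection reagents added, 4 h at room temperature. Excitation 320 nm; 665/615 nm ratio reflects binding, with no-protein background and no-compound full-binding controls.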

BCL2 (D103Y) = BCL2 (D103Y) (Homo sapiens (Human), UniProt P10415, D103Y); experiment: Molecular level activity test of BCL2 (D103Y) (HTRF, binding to Bim peptide); conditions: read-out: BCL-2 (D103Y) (nM) (inhibitory activity, IC50)
Method: as §1, with “BCL2 (D103Y)” for “BCL2 (G101V)”, “5 μL” for “5 L”

BCL-XL, sequence (Q07817 whole entry): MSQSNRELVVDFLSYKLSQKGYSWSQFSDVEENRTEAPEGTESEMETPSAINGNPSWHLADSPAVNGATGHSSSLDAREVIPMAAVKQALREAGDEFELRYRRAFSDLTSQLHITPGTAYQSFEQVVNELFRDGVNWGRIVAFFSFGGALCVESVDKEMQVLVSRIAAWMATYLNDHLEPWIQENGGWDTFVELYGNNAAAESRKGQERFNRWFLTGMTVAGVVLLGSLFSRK

SMILES: CC(C)c1ccccc1[C@@H]1CCCN1C1CC2(CCN(c3cc(Oc4cnc5[nH]ccc5c4)c(C(=O)NS(=O)(=O)c4cc([N+](=O)[O-])c(NCC5(F)CCN(C6COC6)CC5)c5[nH]cnc45)cn3)CC2)C1 [compound 019, (S)-4-((1H-pyrrolo[2,3-b]pyrid-5-yl)oxy)-N-((7-(((4-fluoro-1-(oxocyclobut-3-yl)piperid-4-yl)methyl)amino)-6-nitro-1H-benzo[d]imidazol-4-yl)sulfonyl)-6-(2-(2-(2-isopropylphenyl)pyrrolidin-1-yl)-7-azaspiro[3.5]non-7-yl) nicotinamide]
- IC50 (RS4; 11 cells): 0.5 to 1 nM
- IC50 (BCL2 (G101V)): < 10 nM
- IC50 (BCL2): < 10 nM
- IC50 (BCL-XL; values given in μM): > 1 µM
- IC50 (BCL2 (D103Y)): < 10 nM

SMILES: COc1ccc(CN2CCN(C3CC4(CCN(c5cc(Oc6cnc7[nH]ccc7c6)c(C(=O)NS(=O)(=O)c6cc([N+](=O)[O-])c(NCC7CCOCC7)c7c6OCO7)cc5F)CC4)C3)[C@H](c3ccccc3C(C)C)C2)cc1 [compound 120, (R)-2-((1H-pyrrolo[2,3-b]pyrid-5-yl)oxy)-5-fluoro-4-(2-(2-(2-isopropylphenyl)-4-(4-methoxybenzyl)piperazin-1-yl)-7-azaspiro[3.5]non-7-yl)-N-((6-nitro-7-(((tetrahydro-2H-pyran-4-yl)methyl)amino)benzo[d][1,3]dioxocyclopent-4-yl)sulfonyl)benzamide]
- IC50 (RS4; 11 cells): 0.5 to 1 nM
- IC50 (BCL2 (G101V)): < 10 nM
- IC50 (BCL2): < 10 nM
- IC50 (BCL-XL; values given in μM): 1.6 µM
- IC50 (BCL2 (D103Y)): < 10 nM

SMILES: COc1ccc(CN2CCN(C3CC4(CCN(c5ccc(C(=O)NS(=O)(=O)c6cc([N+](=O)[O-])c(NCC7CCOCC7)c7c6OCO7)c(Oc6cnc7[nH]ccc7c6)c5)CC4)C3)[C@H](c3ccccc3C(C)C)C2)cc1 [compound 145, (R)-2-((1H-pyrrolo[2,3-b]pyrid-5-yl)oxy)-4-(2-(2-(2-isopropylphenyl)-4-(4-methoxybenzyl)piperazin-1-yl)-7-azaspiro[3.5]non-7-yl)-N-((6-nitro-7-(((tetrahydro-2H-pyran-4-yl)methyl)amino)benzo[d][1,3]dioxocyclopent-4-yl)sulfonyl)benzamide]
- IC50 (RS4; 11 cells): < 0.5 nM
- IC50 (BCL2 (G101V)): < 10 nM
- IC50 (BCL2): < 10 nM
- IC50 (BCL-XL; values given in μM): > 1 µM
- IC50 (BCL2 (D103Y)): < 10 nM

SMILES: COc1ccc(CN2CCN(C3CC4(CCN(c5ccc(C(=O)NS(=O)(=O)c6cc([N+](=O)[O-])c(NCC7CCOCC7)c7c6OCCO7)c(Oc6cnc7[nH]ccc7c6)c5)CC4)C3)[C@H](c3ccccc3C(C)C)C2)cc1 [compound 146, (R)-2-((1H-pyrrolo[2,3-b]pyrid-5-yl)oxy)-4-(2-(2-(2-isopropylphenyl)-4-(4-methoxybenzyl)piperazin-1-yl)-7-azaspiro[3.5]non-7-yl)-N-((7-nitro-8-(((tetrahydro-2H-pyran-4-yl)methyl)amino)-2,3-dihydrobenzo[b][1,4]dioxan-5-yl)sulfonyl)benzamide]
- IC50 (RS4; 11 cells): 0.5 to 1 nM
- IC50 (BCL2 (G101V)): < 10 nM
- IC50 (BCL2): < 10 nM
- IC50 (BCL-XL; values given in μM): 2.7 µM
- IC50 (BCL2 (D103Y)): < 10 nM

SMILES: COc1ccc(CN2CCN(C3CC4(CCN(c5cc(Oc6cnc7[nH]ccc7c6)c(C(=O)NS(=O)(=O)c6ccc(NC[C@H]7CC[C@](C)(O)CC7)c([N+](=O)[O-])c6)cc5F)CC4)C3)[C@H](c3ccccc3C(C)C)C2)cn1 [compound 236, 2-((1H-pyrrolo[2,3-b]pyrid-5-yl)oxy)-5-fluoro-N-((4-((((1r, 4r)-4-hydroxy-4-methylcyclohexyl)methyl)amino)-3-nitrophenyl)sulfonyl)-4-(2-((R)-2-(2-isopropylphenyl)-4-((6-methoxypyrid-3-yl)methyl)piperazin-1-yl)-7-azaspiro[3.5]non-7-yl)benzamide]
- IC50 (RS4; 11 cells): 0.5 to 1 nM
- IC50 (BCL2 (G101V)): < 10 nM
- IC50 (BCL2): < 10 nM
- IC50 (BCL-XL; values in nM): > 0.5 µM
- IC50 (BCL2 (D103Y)): < 10 nM

SMILES: COc1ccc(CN2CCN(C3CC4(CCN(c5cc(Oc6cnc7[nH]ccc7c6)c(C(=O)NS(=O)(=O)c6ccc(NC[C@H]7CC[C@](C)(O)CC7)c([N+](=O)[O-])c6)cc5F)CC4)C3)[C@H](c3ccccc3C(C)C)C2)cc1OC [compound 237, 2-((1H-pyrrolo[2,3-b]pyrid-5-yl)oxy)-4-(2-((R)-4-(3,4-dimethoxybenzyl)-2-(2-isopropylphenyl)piperazin-1-yl)-7-azaspiro[3.5]non-7-yl)-5-fluoro-N-((4-((((1r, 4r)-4-hydroxy-4-methylcyclohexyl)methyl)amino)-3-nitrophenyl)sulfonyl)benzamide]
- IC50 (RS4; 11 cells): 0.5 to 1 nM
- IC50 (BCL2 (G101V)): < 10 nM
- IC50 (BCL2): < 10 nM
- IC50 (BCL-XL; values in nM): > 0.5 µM
- IC50 (BCL2 (D103Y)): < 10 nM

SMILES: COc1ccc(CN2CCN(C3CC4(CCN(c5cc(Oc6cnc7[nH]cc(F)c7c6)c(C(=O)NS(=O)(=O)c6ccc(NCC7CCOCC7)c([N+](=O)[O-])c6)cc5F)CC4)C3)[C@H](c3ccccc3C(C)C)C2)cc1 [compound 240, (R)-5-fluoro-2-((3-fluoro-1H-pyrrolo[2,3-b]pyrid-5-yl)oxy)-4-(2-(2-(2-isopropylphenyl)-4-(4-methoxybenzyl)piperazin-1-yl)-7-azaspiro[3.5]non-7-yl)-N-((3-nitro-4-(((tetrahydro-2H-pyran-4-yl)methyl)amino)phenyl)sulfonyl)benzamide]
- IC50 (RS4; 11 cells): 0.5 to 1 nM
- IC50 (BCL2 (G101V)): < 10 nM
- IC50 (BCL2): < 10 nM
- IC50 (BCL-XL; values in nM): > 0.5 µM
- IC50 (BCL2 (D103Y)): < 10 nM

SMILES: CNCc1ccc(CN2CCN(C3CC4(CCN(c5cc(Oc6cnc7[nH]ccc7c6)c(C(=O)NS(=O)(=O)c6ccc(NCC7(F)CCOCC7)c([N+](=O)[O-])c6)cc5F)CC4)C3)[C@H](c3ccccc3C(C)C)C2)cc1 [compound 243, (R)-2-((1H-pyrrolo[2,3-b]pyrid-5-yl)oxy)-5-fluoro-N-((4-(((4-fluorotetrahydro-2H-pyran-4-yl)methyl)amino)-3-nitrophenyl)sulfonyl)-4-(2-(2-(2-isopropylphenyl)-4-(4-((methylamino)methyl)benzyl)piperazin-1-yl)-7-azaspiro[3.5]non-7-yl)benzamide]
- IC50 (RS4; 11 cells): 0.5 to 1 nM
- IC50 (BCL2 (G101V)): < 10 nM
- IC50 (BCL2): < 10 nM
- IC50 (BCL-XL; values in nM): > 0.5 µM
- IC50 (BCL2 (D103Y)): < 10 nM

SMILES: CC(C)c1ccccc1[C@@H]1CN(Cc2ccc(CN(C)C)cc2)CCN1C1CC2(CCN(c3cc(Oc4cnc5[nH]ccc5c4)c(C(=O)NS(=O)(=O)c4ccc(NCC5(F)CCOCC5)c([N+](=O)[O-])c4)cc3F)CC2)C1 [compound 244, (R)-2-((1H-pyrrolo[2,3-b]pyrid-5-yl)oxy)-4-(2-(4-(4-((dimethylamino)methyl)benzyl)-2-(2-isopropylphenyl)piperazin-1-yl)-7-azaspiro[3.5]non-7-yl)-5-fluoro-N-((4-(((4-fluorotetrahydro-2H-pyran-4-yl)methyl)amino)-3-nitrophenyl)sulfonyl)benzamide]
- IC50 (RS4; 11 cells): 0.5 to 1 nM
- IC50 (BCL2 (G101V)): < 10 nM
- IC50 (BCL2): < 10 nM
- IC50 (BCL-XL; values in nM): > 0.5 µM
- IC50 (BCL2 (D103Y)): < 10 nM

Reference: US20250034135A1, “ANTI-APOPTOTIC PROTEIN BCL-2 INHIBITOR, PHARMACEUTICAL COMPOSITION AND USES THEREOF” (HANGZHOU HEALZEN THERAPEUTICS CO., LTD., priority 2021, published 2025)
